Data reported in patent US9247759B2, “Identification of human T2R receptors that respond to bitter compounds that elicit the bitter taste in compositions, and the use thereof in assays to identify compounds that inhibit (block) bitter taste in compositions and use thereof” (SENOMYX, INC., priority 2007, dated 2016).
Read-outs that look alike come from different tables or passages of the source.

Columns and labels:
hT2R10 = hT2R10 (Homo sapiens (Human), UniProt Q9NYW0); experiment: hT2R panel inhibition, transient HEK293 G16g44, agonist Strychnine 50 μM; type: cell-based; settings: HEK293, read-out: screening result against bitter receptor 10, compound at 25 μM; receptor activated to EC80 with the corresponding agonist
Chain of hT2R10 (Q9NYW0 whole entry): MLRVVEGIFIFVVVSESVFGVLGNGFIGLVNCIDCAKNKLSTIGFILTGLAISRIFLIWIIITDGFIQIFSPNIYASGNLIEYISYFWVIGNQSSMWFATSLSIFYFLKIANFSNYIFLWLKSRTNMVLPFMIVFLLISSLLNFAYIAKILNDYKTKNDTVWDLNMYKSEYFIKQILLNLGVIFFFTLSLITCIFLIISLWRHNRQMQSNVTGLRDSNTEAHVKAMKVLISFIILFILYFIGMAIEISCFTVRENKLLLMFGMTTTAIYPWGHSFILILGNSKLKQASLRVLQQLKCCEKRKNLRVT
Experimental: (§1) Specifically, in order to evaluate the inhibitory selectivity of the Compound C compound, this compound was tested against 22 human T2Rs which were deorphaned by Senomyx. These receptors and the bitter ligands that activate these human T2Rs are reported in earlier patent applications which are incorporated by reference herein. These 22 human T2Rs are hT2R1, 3, 4, 5, 7, 8, 9, 10, 13, 14, 16, 44, 51, 54, 55, 61, 63, 64, 65, 67, 71 and 75. The amino acid and nucleic acid sequences of all of these T2Rs may be found in these earlier patent applications. These human T2Rs were each individually transiently transfected into HEK293 cells that stably express the promiscuous G protein G16g44 and functional assays were effected using these receptors as disclosed in these same patent applications. […] The ligands were used at EC80 concentration levels. The list of bitter ligands utilized and the tested ligand concentrations are contained in Table 5 of this example.
(§2) Relating to the foregoing, FIG. 5 contains experimental results wherein Compound C was tested with different agonist compounds. The inhibition activity is represented by the reduction of receptor activity in the presence of Compound C. […] These 13 hT2Rs are hT2R3, 7, 10, 14, 16, 44, 51, 55, 61, 63, 64, 65, and 71.

hT2R16 = hT2R16 (Homo sapiens (Human), UniProt Q9NYV7); experiment: hT2R panel inhibition, transient HEK293 G16g44, agonist Salicin 1 mM; type: cell-based; settings: HEK293, compound at 25 μM
Chain of hT2R16 (Q9NYV7 whole entry): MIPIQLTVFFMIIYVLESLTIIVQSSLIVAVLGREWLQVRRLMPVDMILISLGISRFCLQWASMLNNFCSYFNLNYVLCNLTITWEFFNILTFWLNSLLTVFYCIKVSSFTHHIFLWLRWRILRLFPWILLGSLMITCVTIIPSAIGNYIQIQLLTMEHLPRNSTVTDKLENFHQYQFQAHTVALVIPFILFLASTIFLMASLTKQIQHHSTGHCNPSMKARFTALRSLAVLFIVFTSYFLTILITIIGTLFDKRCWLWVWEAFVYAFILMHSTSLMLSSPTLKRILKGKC
Experimental: as §1, §2

hT2R44 = experiment: hT2R panel inhibition, transient HEK293 G16g44, agonist Denatonium 0.5 μM; type: cell-based, human; settings: compound at 25 μM; for screening result against bitter receptor 44: receptor activated to EC80 with the corresponding agonist
Procedure, shortened: (§3)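 Compound C tested for reduction of receptor activity evoked by EC80-level bitter agonists, receptor by receptor. Assay cells: HEK293 line stably carrying promiscuous G protein G16g44, transiently transfected with individual human T2Rs.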

hT2R54 = experiment: hT2R panel inhibition, transient HEK293 G16g44, agonist Ranitidine 5 mM; type: cell-based, human; settings: compound at 25 μM; for screening result against bitter receptor 54: receptor activated to EC80 with the corresponding agonist
Experimental: as §1, §2

hT2R55 = experiment: hT2R panel inhibition, transient HEK293 G16g44, agonist Cinchonine 150 μM; type: cell-based, human; settings: compound at 25 μM; for screening result against bitter receptor 55: receptor activated to EC80 with the corresponding agonist
Procedure, shortened: as §3

hT2R61 = hT2R61 (Homo sapiens (Human), UniProt P59537); experiment: hT2R panel inhibition, transient HEK293 G16g44, agonist Aristolochic Acid 25 nM; type: cell-based; settings: HEK293, compound at 25 μM
Chain of hT2R61 (P59537 whole entry): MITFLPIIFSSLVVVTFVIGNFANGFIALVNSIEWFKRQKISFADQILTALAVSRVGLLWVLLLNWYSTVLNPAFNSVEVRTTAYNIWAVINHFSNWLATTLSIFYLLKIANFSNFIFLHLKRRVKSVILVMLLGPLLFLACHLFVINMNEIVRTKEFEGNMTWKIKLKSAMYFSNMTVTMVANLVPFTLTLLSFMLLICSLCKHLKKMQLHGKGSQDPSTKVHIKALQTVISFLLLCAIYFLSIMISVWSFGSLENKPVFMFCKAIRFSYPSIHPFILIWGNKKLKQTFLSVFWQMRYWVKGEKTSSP
Procedure, shortened: as §3

hT2R63 = experiment: hT2R panel inhibition, transient HEK293 G16g44, agonist Caffeine 1 mM or Andrographolide 100 μM; type: cell-based, human; settings: compound at 25 μM; for screening result against bitter receptor 63: receptor activated to EC80 with the corresponding agonist
Procedure, shortened: as §3

hT2R64 = hT2R64 (Homo sapiens (Human), UniProt P59538); experiment: hT2R panel inhibition, transient HEK293 G16g44, agonist Aristolochic Acid 1 μM; type: cell-based; settings: HEK293, compound at 25 μM
Chain of hT2R64 (P59538 whole entry): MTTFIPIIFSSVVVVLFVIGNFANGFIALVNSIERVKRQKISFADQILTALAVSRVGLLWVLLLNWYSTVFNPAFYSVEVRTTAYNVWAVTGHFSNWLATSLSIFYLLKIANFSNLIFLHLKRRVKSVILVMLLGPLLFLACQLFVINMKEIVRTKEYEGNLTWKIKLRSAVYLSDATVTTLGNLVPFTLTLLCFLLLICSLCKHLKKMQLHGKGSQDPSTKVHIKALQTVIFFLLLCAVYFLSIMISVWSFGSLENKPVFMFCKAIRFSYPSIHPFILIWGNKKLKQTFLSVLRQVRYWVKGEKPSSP
Procedure, shortened: as §3

hT2R65 = experiment: hT2R panel inhibition, transient HEK293 G16g44, agonist Oleuropein 1 mM; type: cell-based, human; settings: compound at 25 μM; receptor activated to EC80 with the corresponding agonist
Experimental: as §1, §2

hT2R71 = hT2R71 (Homo sapiens (Human), UniProt P59536); experiment: hT2R panel inhibition, transient HEK293 G16g44, agonist Picric Acid 10 μM; type: cell-based; settings: HEK293, compound at 25 μM
Chain of hT2R71 (P59536 whole entry): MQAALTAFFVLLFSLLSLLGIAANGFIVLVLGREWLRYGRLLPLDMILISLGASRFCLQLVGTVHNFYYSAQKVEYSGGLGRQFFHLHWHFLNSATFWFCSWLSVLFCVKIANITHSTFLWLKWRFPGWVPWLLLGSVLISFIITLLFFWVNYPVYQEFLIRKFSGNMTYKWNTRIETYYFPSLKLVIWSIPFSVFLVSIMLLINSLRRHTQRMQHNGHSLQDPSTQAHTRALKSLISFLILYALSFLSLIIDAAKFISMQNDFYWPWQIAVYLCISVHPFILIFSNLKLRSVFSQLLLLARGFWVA
Procedure, shortened: as §3

hT2R14 [1] = biological target: T1, hT2R14 (Homo sapiens (Human), UniProt Q9NYV8); experiment: hT2R14 antagonist high-throughput FLIPR assay, stable cell line with G16g44, agonist aristolochic acid; type: cell-based; settings: read-out: IC50 on hT2R14 bitter receptor
T1 sequence (Q9NYV8 whole entry): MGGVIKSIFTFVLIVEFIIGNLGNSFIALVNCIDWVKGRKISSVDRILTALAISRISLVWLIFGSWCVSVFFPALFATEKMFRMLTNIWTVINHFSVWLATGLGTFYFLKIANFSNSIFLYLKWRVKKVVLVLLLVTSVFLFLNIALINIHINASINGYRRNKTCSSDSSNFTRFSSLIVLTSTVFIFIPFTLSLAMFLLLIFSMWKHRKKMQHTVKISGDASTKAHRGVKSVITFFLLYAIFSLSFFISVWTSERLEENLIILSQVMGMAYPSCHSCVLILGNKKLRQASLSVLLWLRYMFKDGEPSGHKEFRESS
Procedure, shortened: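 Compounds were co-applied with 3 μM aristolochic acid, a dose set to reach 70-80% of maximal hT2R14 activation. Read-out was FLIPR fluorescence in a stable HEK293 line co-expressing hT2R14 and G16g44.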

hT2R3 = hT2R3 (Homo sapiens (Human), UniProt Q9NYW6); experiment: hT2R panel inhibition, transient HEK293 G16g44, agonist Chloroquine pH6.5 50 μM; type: cell-based; settings: HEK293, compound at 25 μM; receptor activated to EC80 with the corresponding agonist; read-out: screening result against bitter receptor 3
Chain of hT2R3 (Q9NYW6 whole entry): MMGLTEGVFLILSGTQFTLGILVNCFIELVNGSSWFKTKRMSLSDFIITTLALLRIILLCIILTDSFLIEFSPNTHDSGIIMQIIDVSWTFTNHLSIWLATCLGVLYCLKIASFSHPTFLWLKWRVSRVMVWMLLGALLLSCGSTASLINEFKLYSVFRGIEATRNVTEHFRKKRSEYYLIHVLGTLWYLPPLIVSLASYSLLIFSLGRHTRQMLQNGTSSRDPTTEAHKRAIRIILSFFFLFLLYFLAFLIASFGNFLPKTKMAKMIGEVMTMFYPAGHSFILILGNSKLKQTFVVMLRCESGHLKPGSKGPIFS
Procedure, shortened: as §3

hT2R5 = hT2R5 (Homo sapiens (Human), UniProt Q9NYW4); experiment: hT2R panel inhibition, transient HEK293 G16g44, agonist Picoline 10 mM; type: cell-based; settings: HEK293, compound at 25 μM; receptor activated to EC80 with the corresponding agonist; read-out: screening result against bitter receptor 5
Chain of hT2R5 (Q9NYW4 whole entry): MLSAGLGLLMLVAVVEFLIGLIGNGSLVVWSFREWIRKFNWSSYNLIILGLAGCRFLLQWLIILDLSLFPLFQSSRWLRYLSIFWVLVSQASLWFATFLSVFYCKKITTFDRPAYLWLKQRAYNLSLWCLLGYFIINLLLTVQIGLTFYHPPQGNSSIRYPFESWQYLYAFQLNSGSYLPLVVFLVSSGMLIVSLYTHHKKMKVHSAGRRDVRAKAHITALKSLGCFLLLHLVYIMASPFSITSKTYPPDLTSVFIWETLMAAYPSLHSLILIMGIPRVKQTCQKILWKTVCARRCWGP
Experimental: as §1, §2

hT2R14 [2] = biological target: T1, hT2R14; experiment: hT2R panel inhibition, transient HEK293 G16g44, agonist Aristolochic Acid 2 μM; type: cell-based; settings: HEK293, compound at 25 μM
Procedure, shortened: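 Agonist challenge was at EC80, with 0.5 mM andrographolide on hT2R8 and 2 μM aristolochic acid on hT2R14. Inhibition was measured in functional assays in HEK293 cells that stably carry the promiscuous G protein G16g44 and were transiently transfected with the individual receptor.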

hT2R7 = hT2R7 (Homo sapiens (Human), UniProt Q9NYW3); experiment: hT2R panel inhibition, transient HEK293 G16g44, agonist Chloroquine pH6.5 10 mM; type: cell-based; settings: HEK293, compound at 25 μM; receptor activated to EC80 with the corresponding agonist; read-out: screening result against bitter receptor 7
Chain of hT2R7 (Q9NYW3 whole entry): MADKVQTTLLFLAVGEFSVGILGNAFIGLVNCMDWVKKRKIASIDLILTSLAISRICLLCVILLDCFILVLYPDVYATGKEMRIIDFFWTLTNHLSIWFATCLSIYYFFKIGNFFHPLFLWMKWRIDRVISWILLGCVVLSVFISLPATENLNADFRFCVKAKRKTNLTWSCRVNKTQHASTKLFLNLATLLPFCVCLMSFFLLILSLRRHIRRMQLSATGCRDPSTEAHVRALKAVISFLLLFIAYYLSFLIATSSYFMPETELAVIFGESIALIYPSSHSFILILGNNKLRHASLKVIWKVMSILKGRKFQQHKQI
Experimental: as §1, §2

hT2R67 = experiment: hT2R panel inhibition, transient HEK293 G16g44, agonist Andrographolide 5 μM; type: cell-based, human; settings: compound at 25 μM; for screening result against bitter receptor 67: receptor activated to EC80 with the corresponding agonist
Experimental: as §1, §2

[3] = receptor activated to EC80 with the corresponding agonist, read-out: screening result against bitter receptor 16
[4] = receptor activated to EC80 with the corresponding agonist, read-out: screening result against bitter receptor 61
[5] = receptor activated to EC80 with the corresponding agonist, read-out: screening result against bitter receptor 64
[6] = receptor activated to EC80 with the corresponding agonist, read-out: screening result against bitter receptor 71
[7] = receptor activated to EC80 with the corresponding agonist, read-out: screening result against bitter receptor 14
[8] = receptor activated to EC80 with agonist

Structure (SMILES)	inhibition at 25 µM (hT2R10)	inhibition at 25 µM (hT2R16; [3])	screening result against bitter receptor 44 (hT2R44)	screening result against bitter receptor 54 (hT2R54)	screening result against bitter receptor 55 (hT2R55)	inhibition at 25 µM (hT2R61; [4])	screening result against bitter receptor 63 (hT2R63)	inhibition at 25 µM (hT2R64; [5])	screening result against bitter receptor 65 (hT2R65)	inhibition at 25 µM (hT2R71; [6])	inhibition at 25 µM (hT2R3)	inhibition at 25 µM (hT2R5)	inhibition at 25 µM (hT2R14 [2]; [7])	screening result against bitter receptor 67 (hT2R67)	further results
COc1ccc(CN(c2ccccc2)S(=O)(=O)c2ccc(C(=O)O)cc2)cc1 [Example 5-18, 4-(N-(4-methoxybenzyl)-N-phenylsulfamoyl)benzoic acid]	> 80%	40 to 60%	+++ (60% to 80% inhibition = +++)	++ (40% to 60% inhibition = ++)	++++ (80% or greater inhibition = ++++)	60 to 80%	+++ (60% to 80% inhibition = +++)	> 80%	+ (20% to 40% inhibition = +)	40 to 60%					
COc1ccc(CN(CCc2ccccc2)S(=O)(=O)c2ccc(C(=O)O)cc2)cc1 [Example 5-19, 4-(N-(4-methoxybenzyl)-N-phenethylsulfamoyl)benzoic acid]	20 to 40%	20 to 40%	++ (40% to 60% inhibition = ++)	+ (20% to 40% inhibition = +)	++++ (80% or greater inhibition = ++++)			> 80%	+ (20% to 40% inhibition = +)	20 to 40%	20 to 40%	20 to 40%	> 80%		IC50 (hT2R14 [1]): 4.58 µM
COc1ccc(CN(Cc2ccc(F)c(F)c2)S(=O)(=O)c2ccc(C(=O)O)cc2)cc1 [Example 5-36, 4-(N-(3,4-difluorobenzyl)-N-(4-methoxybenzyl)sulfamoyl)benzoic acid]	20 to 40%	20 to 40%	++ (40% to 60% inhibition = ++)	+ (20% to 40% inhibition = +)	++++ (80% or greater inhibition = ++++)	> 80%	+++ (60% to 80% inhibition = +++)	> 80%	++ (40% to 60% inhibition = ++)	60 to 80%	40 to 60%		> 80%		inhibition at 25 µM (hT2R7): 20 to 40%
O=C(O)c1ccc(CN(Cc2ccccc2)S(=O)(=O)c2ccc(C(=O)O)cc2)cc1 [Example 5-48, 4-((N-benzyl-4-carboxyphenylsulfonamido)methyl)benzoic acid]	60 to 80%	20 to 40%	+++ (60% to 80% inhibition = +++)	++ (40% to 60% inhibition = ++)	++++ (80% or greater inhibition = ++++)	> 80%		60 to 80%	++ (40% to 60% inhibition = ++)	60 to 80%	40 to 60%	20 to 40%	> 80%	+ (20% to 40% inhibition = +)	
N#Cc1ccc(CN(Cc2ccccc2)S(=O)(=O)c2ccc(C(=O)O)cc2)cc1 [Example 5-91, 4-(N-benzyl-N-(4-cyanobenzyl)sulfamoyl)benzoic acid]	40 to 60%	20 to 40%	+++ (60% to 80% inhibition = +++)	+ (20% to 40% inhibition = +)	++++ (80% or greater inhibition = ++++)	> 80%	++++ (80% or greater inhibition = ++++)	> 80%		60 to 80%	60 to 80%	20 to 40%	> 80%	+ (20% to 40% inhibition = +)	
COc1ccc2c(c1)-c1ccccc1CN(S(=O)(=O)c1ccc(C(=O)O)cc1)C2 [Example 5-106, 4-(2-methoxy-5H-dibenzo[c,e]azepin-6(7H)-ylsulfonyl)benzoic acid]															inhibition at 25 µM (hT2R14 [2]; receptor activated to EC80 with agonist, read-out: inhibition of bitter receptor 14): > 80%; inhibition at 25 µM (hT2R16; receptor activated to EC80 with agonist, read-out: inhibition of bitter receptor 16): 20 to 40%; inhibition of bitter receptor 44 (hT2R44; [8]): ++ (40% to 60% inhibition = ++); inhibition of bitter receptor 54 (hT2R54; [8]): ++ (40% to 60% inhibition = ++); inhibition of bitter receptor 55 (hT2R55; [8]): ++++ (80% or greater inhibition = ++++); inhibition at 25 µM (hT2R61; receptor activated to EC80 with agonist, read-out: inhibition of bitter receptor 61): 40 to 60%; inhibition of bitter receptor 63 (hT2R63; [8]): ++++ (80% or greater inhibition = ++++); inhibition at 25 µM (hT2R64; receptor activated to EC80 with agonist, read-out: inhibition of bitter receptor 64): 60 to 80%; inhibition of bitter receptor 67 (hT2R67; [8]): + (20% to 40% inhibition = +); inhibition at 25 µM (hT2R71; receptor activated to EC80 with agonist, read-out: inhibition of bitter receptor 71): 20 to 40%
